For this assay, the target named is T1, human RXFP1 (Homo sapiens, UniProt Q9HBX9).
T1 construct: expressed in transfected cells
T1 sequence (Q9HBX9 1-757): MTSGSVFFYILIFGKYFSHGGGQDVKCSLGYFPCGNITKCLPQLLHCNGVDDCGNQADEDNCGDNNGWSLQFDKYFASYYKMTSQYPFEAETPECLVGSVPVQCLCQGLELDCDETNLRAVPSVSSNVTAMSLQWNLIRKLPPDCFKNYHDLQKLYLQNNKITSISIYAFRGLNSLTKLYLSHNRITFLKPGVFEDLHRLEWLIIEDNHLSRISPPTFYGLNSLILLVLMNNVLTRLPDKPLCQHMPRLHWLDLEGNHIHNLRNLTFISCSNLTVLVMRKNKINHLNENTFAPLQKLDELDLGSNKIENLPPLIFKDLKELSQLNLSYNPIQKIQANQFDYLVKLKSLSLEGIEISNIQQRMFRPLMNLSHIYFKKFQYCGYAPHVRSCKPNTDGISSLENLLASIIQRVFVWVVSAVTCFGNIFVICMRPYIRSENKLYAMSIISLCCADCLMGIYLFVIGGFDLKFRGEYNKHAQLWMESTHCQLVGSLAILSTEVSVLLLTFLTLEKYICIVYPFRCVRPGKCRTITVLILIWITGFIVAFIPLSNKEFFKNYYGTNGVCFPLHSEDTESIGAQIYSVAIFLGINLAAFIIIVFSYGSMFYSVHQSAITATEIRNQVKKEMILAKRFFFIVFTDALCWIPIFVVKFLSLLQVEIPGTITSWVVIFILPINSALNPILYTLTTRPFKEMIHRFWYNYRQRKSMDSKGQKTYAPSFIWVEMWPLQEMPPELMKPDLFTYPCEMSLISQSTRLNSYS
In words: hRXFP1 HEK293 cAMP assay (HTRF). The assay is classed as cell-based. The conditions noted are these: HEK293 cells stably expressing human RXFP1, 30 min at room temperature. The method in brief:
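Potency and activity come from a four-parameter logistic fit of cAMP against compound concentration, tested from 0.010 nM up to 50 μM. The assay uses HEK293 cells stably expressing human RXFP1, incubated 30 min at ambient temperature with phosphodiesterase inhibitor IBMX present.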

pEC50: −log10 of the molar value.

For 20 compounds, EC50 results are on record in patent US20250268903A1, “RXFP1 AGONISTS” (BRISTOL-MYERS SQUIBB COMPANY, priority 2021, published 2025).

`COc1ccc(CCC(O)C(F)(F)F)cc1C(=O)N[C@@H]1C2CCC(/C2=C/C(F)(F)F)[C@@H]1C(=O)Nc1ccc(F)c(C(F)(F)F)c1` (stereo partly drawn) [Example 100, (2S,3R,7Z)-N-[4-fluoro-3-(trifluoromethyl)phe-nyl]-3-[2-methoxy-5-(4,4,4-trifluoro-3-hydroxybutyl)benza-mido]-7-(2,2,2-trifluoroethylidene)bi-cyclo[2.2.1]heptane-2-carboxamide] had a pEC50 of 6.43.

Compound `COc1ccc(/C=C/C(=O)N2CCC(S(C)(=O)=O)CC2)cc1C(=O)N[C@H]1[C@@H](C(=O)Nc2ccc(F)c(C(F)(F)F)c2)[C@H]2CC[C@@H]1/C2=C\C1CC1` [Example 317, (1R,2S,3R,4R,7Z)-7-(cyclopropyl-methylidene)-N-[4-fluoro-3-(trifluoromethyl)phenyl]-3-{5-[(1E)-3-(4-methanesulfonyl-piperidin-1-yl)-3-oxoprop-1-en-1-yl]-2-methoxybenzamido} bicyclo[2.2.1]heptane-2-carboxamide] showed a pEC50 of 6.85. `COc1ccc(C2CCCC(O)C2)cc1C(=O)N[C@@H]1C2CCC(/C2=C/C(F)(F)F)[C@@H]1C(=O)Nc1ccc(F)c(C(F)(F)F)c1` (single isomer, unassigned) [Example 35]: the pEC50 was 6.18.

In turn, `COc1ccc(/C=C/C(=O)N2CC(O)C2)cc1C(=O)N[C@H]1[C@@H](C(=O)Nc2ccc(F)c(C(F)(F)F)c2)[C@H]2CC[C@@H]1/C2=C\C1CC1` [Example 313, (1R,2S,3R,4R,7Z)-7-(cyclopropyl-methylidene)-N-[4-fluoro-3-(trifluoromethyl)phenyl]-3-{5-[(1E)-3-(3-hydroxyazetidin-1-yl)-3-oxoprop-1-en-1-yl]-2-methoxybenzamido} bicyclo[2.2.1]heptane-2-carboxamide] showed a pEC50 of 7.48.

In turn, `COc1ccc(CCCNC(=O)OC(C)(C)C)cc1C(=O)N[C@@H]1C2CCC(/C2=C/C(F)(F)F)[C@@H]1C(=O)Nc1ccc(F)c(C(F)(F)F)c1` (some centres unmarked) [Example 109] gave a pEC50 of 5.68. Under `COc1ccc(C(=O)N2CCC(S(C)(=O)=O)CC2)cc1C(=O)N[C@H]1[C@@H](C(=O)Nc2ccc(F)c(C(F)(F)F)c2)[C@H]2CC[C@@H]1/C2=C\C1CC1` [Example 247, (1R,2S,3R,4R,7Z)-7-(cyclopropylmethyl-idene)-N-[4-fluoro-3-(trifluoromethyl)phenyl]-3-[5-(4-methanesulfonyl-piperidine-1-carbonyl)-2-methoxybenzamido] bicyclo[2.2.1] heptane-2-carboxamide] stands 7.57; under `COc1ccc(CCCNC(=O)C(C)(C)O)cc1C(=O)N[C@@H]1C2CCC(/C2=C/C(F)(F)F)[C@@H]1C(=O)Nc1ccc(F)c(C(F)(F)F)c1` (stereo partly drawn) [Example 113, (2S,3R,7Z)-N-[4-fluoro-3-(trifluoromethyl)phe-nyl]-3-{5-[3-(2-hydroxy-2-methylpropanamido)propyl]-2-methoxybenzamido}-7-(2,2,2-trifluoroethylidene)bi-cyclo[2.2.1]heptane-2-carboxamide], 6.47. `COc1ccc(C2CC2C(=O)N2CCC(O)CC2)cc1C(=O)N[C@H]1[C@@H](C(=O)Nc2ccc(F)c(C(F)(F)F)c2)[C@H]2CC[C@@H]1/C2=C\C(F)(F)F` (single isomer, unassigned) [Example 325] showed a pEC50 of 5.53. The figure for `COc1ccc(S(=O)(=O)N2CCNCC2)cc1C(=O)NC1C2CCC(/C2=C/C(F)(F)F)[C@@H]1C(=O)Nc1ccc(F)c(C(F)(F)F)c1` (stereo partly drawn) [Example 203, (2S,3R,7Z)-N-[4-fluoro-3-(trifluoromethyl)phe-nyl]-3-[2-methoxy-5-(piperazine-1-sulfonyl)benzamido]-7-(2,2,2-trifluoroethylidene)bi-cyclo[2.2.1]heptane-2-carboxamide] is 6.07; for `COc1ccc(C(C)CCO)cc1C(=O)N[C@@H]1C2CCC(/C2=C/C(F)(F)F)[C@@H]1C(=O)Nc1ccc(F)c(C(F)(F)F)c1` (single isomer, unassigned) [Example 61] it is 6.22; for `COc1ccc(S(=O)(=O)N2CC3COCC3C2)cc1C(=O)NC1C2CCC(/C2=C/C(F)(F)F)[C@@H]1C(=O)Nc1ccc(F)c(C(F)(F)F)c1` (stereo partly drawn) [Example 205, (2S,3R,7Z)-N-[4-fluoro-3-(trifluoromethyl)phe-nyl]-3-(5-{hexahydro-1H-furo[3,4-c]pyrrole-5-sulfonyl}-2-methoxybenzamido)-7-(2,2,2-trifluoroethylidene)bi-cyclo[2.2.1]heptane-2-carboxamide] it is 6.21. On to `COc1ccc(C(=O)N(C)C(C)(C)C)cc1C(=O)N[C@H]1[C@@H](C(=O)Nc2ccc(F)c(C(F)(F)F)c2)[C@H]2CC[C@@H]1/C2=C\C1CC1` [Example 241, N1-tert-butyl-N3-[(1R,2R,3S,4R,7Z)-7-(cyclopropyl-methylidene)-3-{[4-fluoro-3-(trifluoromethyl)phenyl]carbamoyl}bicyclo[2.2.1]heptan-2-yl]-4-methoxy-N1-methylbenzene-1,3-dicarboxamide], for which the pEC50 is 7.16. Consider `COc1ccc(C#C[C@H](C)O)cc1C(=O)N[C@@H]1C2CCC(/C2=C/C(F)(F)F)[C@@H]1C(=O)Nc1ccc(F)c(C(F)(F)F)c1` (stereo partly drawn) [Example 71, (2S,3R,7Z)-N-[4-fluoro-3-(trifluoromethyl)phe-nyl]-3-{5-[(3S)-3-hydroxybut-1-yn-1-yl]-2-methoxybenzamido}-7-(2,2,2-trifluoroethylidene)bi-cyclo[2.2.1]heptane-2-carboxamide], for which the pEC50 is 6.93.

For the compound `COc1ccc(C(=O)N2CCCC(CO)C2)cc1C(=O)N[C@H]1[C@@H](C(=O)Nc2ccc(F)c(C(F)(F)F)c2)[C@H]2CC[C@@H]1/C2=C\C1CC1` (stereo partly drawn) [Example 234, (1R,2S,3R,4R,7Z)-7-(cyclopropyl-methylidene)-N-[4-fluoro-3-(trifluoromethyl)phenyl]-3-{5-[3-(hydroxymethyl)piperidine-1-carbonyl]-2-methoxybenzamido} bicyclo[2.2.1]heptane-2-carboxamide], the pEC50 was 7.19. Compound `COc1ccc(CCCO)cc1C(=O)N[C@@H]1C2CCC(/C2=C/C2CC2)[C@@H]1C(=O)Nc1ccc(F)c(C(F)(F)F)c1` (stereo partly drawn) [Example 91, (2S,3R,7Z)-7-(cyclopropylmethyli-dene)-N-[4-fluoro-3-(trifluoromethyl)phe-nyl]-3-[5-(3-hydroxypropyl)-2-methoxybenzamido] bicyclo[2.2.1]heptane-2-carboxamide] gave a negative logarithm of the EC50 (pEC50) of 7.15. Turning to `COc1ccc(CCCOc2nc3ccccc3n2C)cc1C(=O)N[C@@H]1C2CCC(/C2=C/C(F)(F)F)[C@@H]1C(=O)Nc1ccc(F)c(C(F)(F)F)c1` (stereo partly drawn) [Example 105, (2S,3R,7Z)-N-[4-fluoro-3-(trifluoromethyl)phe-nyl]-3-(2-methoxy-5-{3-[(1-methyl-1H-1,3-benzodiazol-2-yl)oxy]propyl}benza-mido)-7-(2,2,2-trifluoroethylidene)bi-cyclo[2.2.1]heptane-2-carboxamide], the pEC50 is 5.78. Under `COc1ccc(COC2=NOC3CC(O)CC23)cc1C(=O)N[C@H]1[C@@H](C(=O)Nc2ccc(F)c(C(F)(F)F)c2)[C@H]2CC[C@@H]1/C2=C\C1CC1` (stereo partly drawn) [Example 301, (1R,2S,3R,4R,7Z)-7-(cyclopropylmethylidene)-N-[4-fluoro-3-(trifluoromethyl)phenyl]-3-{5-[({5-hydroxy-3aH,4H,5H,6H,6aH cyclopenta[d][1,2]oxazol-3-yl}oxy)methyl]-2-methoxybenzamido} bicyclo[2.2.1] heptane-2-carboxamide] stands 7.67. For `COc1ccc(COCC(=O)O)cc1C(=O)N[C@@H]1C2CCC(/C2=C/c2ccccc2)[C@@H]1C(=O)Nc1ccc(F)c(C(F)(F)F)c1` (stereo partly drawn) [Example 29, 2-[(3-{[(2R,3S,7Z)-3-{[4-fluoro-3-(trifluoromethyl)phe-nyl]carbamoyl}-7-(phenylmethylidene)bicyclo[2.2.1]heptan-2-yl]carbamoyl}-4-methoxyphenyl)meth-oxy]acetic acid], the pEC50 was 6.40. `COc1ccc(/C=C/C(=O)N2CCO[C@@H](CO)C2)cc1C(=O)N[C@H]1[C@@H](C(=O)Nc2ccc(F)c(C(F)(F)F)c2)[C@H]2CC[C@@H]1/C2=C\C1CC1` [Example 307, (1R,2S,3R,4R,7Z)-7-(cyclopropyl-methylidene)-N-[4-fluoro-3-(trifluoromethyl)phenyl]-3-{5-[(1E)-3-[(2R)-2-(hydroxymethyl)morpholin-4-yl]-3-oxoprop-1-en-1-yl]-2-methoxybenzamido} bicyclo[2.2.1]heptane-2-carboxamide] had a pEC50 of 7.73. As to `COc1ccc(CCC(=O)N2CCC(O)CC2)cc1C(=O)N[C@H]1[C@@H](C(=O)Nc2ccc(F)c(C(F)(F)F)c2)[C@H]2CC[C@@H]1/C2=C\C(F)(F)F` [Example 320], the pEC50 was 7.09.
